Assay type in all cases: in vivo
For test [1], the system named is Echinochloa oryzacola Vasing. Briefly: Test Example 2: herbicidal activity, application during weed generation in submerged conditions. As to conditions: Eighteenth Table; application herbicide amount 320 g/ha. In short, it runs like this: (§1)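 Post-emergence application under submerged conditions: water-diluted emulsion dosed onto the water surface (g/ha) when weeds reach one- to two-leaf stage. Soil flooded to 4 cm; greenhouse 25–30 °C. Herbicidal ratio graded in six classes, 0 (≤5%) to 5 (≥90%), at three weeks.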

Test [2] deals with Monochoria vaginalis. The test is described as above. As to conditions: Eighteenth Table; application herbicide amount 320 g/ha. The procedure, abridged:
as §1

Test [3] has as its system Scirpus juncoides. The description is as above. To be noted: Eighteenth Table; application herbicide amount 320 g/ha. The procedure, abridged:
as §1

Test [4] relates to Abutilon theophrasti. Briefly: Test Example 4: herbicidal effect by application to foliage (diluvial soil, plastic box). As to conditions: Application herbicide amount 320 g/ha; foliage application. The procedure, abridged: (§2)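 Emulsion-formulated compound, diluted to a predetermined g/ha dose, applied by small sprayer to leaves and stems of 14-day-old seedlings grown in sterilized diluvial soil. Effect rated on 0–5 herbicidal-ratio scale three weeks on.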

Test [5] deals with Alopecurus myosuroides. The description is as above. To be noted: Application herbicide amount 320 g/ha; foliage application. The procedure, abridged:
as §2

In test [6] the test system is Amaranthus retroflexus. The description is as above. As to conditions: Application herbicide amount 320 g/ha; foliage application. In short, it runs like this:
as §2

The subject of test [7] is Apera spica-venti. The description is as above. As to conditions: Application herbicide amount 320 g/ha; foliage application. The procedure, abridged: as §2
In test [8] the test system is Avena fatua. Described as above. To be noted: Application herbicide amount 320 g/ha; foliage application. The procedure, abridged: as §2
Test [9] deals with Chenopodium album. The description is as above. As to conditions: Application herbicide amount 320 g/ha; foliage application. The procedure, abridged:
as §2

Test [10] relates to Digitaria ciliaris. Described as above. As to conditions: Application herbicide amount 320 g/ha; foliage application. The procedure, abridged: as §2
For test [11], the system named is Echinochloa crus-galli var. crus-galli. The description is as above. As to conditions: Application herbicide amount 320 g/ha; foliage application. The procedure, abridged:
as §2

For test [12], the system named is Galium spurium. The test is described as above. To be noted: Application herbicide amount 320 g/ha; foliage application. The procedure, abridged: as §2
Test [13] has as its system Lolium multiflorum Lam. The description is as above. To be noted: Application herbicide amount 320 g/ha; foliage application. In short, it runs like this:
as §2

For test [14], the system named is Setaria viridis. The description is as above. To be noted: Application herbicide amount 320 g/ha; foliage application. The procedure, abridged:
as §2

For test [15], the system named is Veronica persica. The test is described as above. As to conditions: Application herbicide amount 320 g/ha; foliage application. In short, it runs like this:
as §2

For the molecule `COc1ccc(Cc2nnc3c(C(=O)Nc4nnco4)ccc(C(F)(F)F)n23)cc1` [1-151], the “A (Echinochloa oryzicola Vasing.) herbicidal ratio grade” value in test [1] was 4 (Herbicidal ratio of 70% or more and less than 90%). For the same molecule, the “C (Monochoria vaginalis) herbicidal ratio grade” value in test [2] was 2 (Herbicidal ratio of 20% or more and less than 40%). Further, the “B (Scirpus juncoides) herbicidal ratio grade” value in [3] is 4 (Herbicidal ratio of 70% or more and less than 90%). Further, the “M (Abutilon theophrasti) herbicidal effect grade” value in test [4] is 3 (Herbicidal ratio of 40% or more and less than 70%). For the same molecule, in test [5], the “J (Alopecurus myosuroides) herbicidal effect grade” value was 1 (Herbicidal ratio of 5% or more and less than 20%). In addition, the “N (Amaranthus retroflexus) herbicidal effect grade” value in [6] is on record as 5 (Herbicidal ratio of 90% or more (almost completely withered)). The “L (Apera spica-venti.) herbicidal effect grade” value in [7] was 2 (Herbicidal ratio of 20% or more and less than 40%). The “I (Avena fatua) herbicidal effect grade” value in test [8] was 3 (Herbicidal ratio of 40% or more and less than 70%). In test [9], the “O (Chenopodium album) herbicidal effect grade” value is 5 (Herbicidal ratio of 90% or more (almost completely withered)). For the same molecule, the “F (Digitaria ciliaris) herbicidal effect grade” value in test [10] was 5 (Herbicidal ratio of 90% or more (almost completely withered)). In addition, the “H (Echinochloa crus-galli var. crus-galli) herbicidal effect grade” value in test [11] was 5 (Herbicidal ratio of 90% or more (almost completely withered)). Besides, the “Q (Galium spurium) herbicidal effect grade” value in [12] was 4 (Herbicidal ratio of 70% or more and less than 90%). For the same molecule, the “K (Lolium multiflorum Lam.) herbicidal effect grade” value in test [13] is 3 (Herbicidal ratio of 40% or more and less than 70%). For the same molecule, the “G (Setaria viridis) herbicidal effect grade” value in test [14] is 3 (Herbicidal ratio of 40% or more and less than 70%). Besides, the “R (Veronica persica) herbicidal effect grade” value in test [15] is listed as 5 (Herbicidal ratio of 90% or more (almost completely withered)).

Consider `Cc1nnc(NC(=O)c2ccc(C(F)(F)F)n3c(N4CCCC4)nnc23)o1` [1-136], for which the “A (Echinochloa oryzicola Vasing.) herbicidal ratio grade” value in test [1] is listed as 0 (Herbicidal ratio of 5% or less (almost no effect)). Moreover, in test [2], the “C (Monochoria vaginalis) herbicidal ratio grade” value was 2 (Herbicidal ratio of 20% or more and less than 40%). Moreover, in test [3], the “B (Scirpus juncoides) herbicidal ratio grade” value was 2 (Herbicidal ratio of 20% or more and less than 40%). In [4], the “M (Abutilon theophrasti) herbicidal effect grade” value is 3 (Herbicidal ratio of 40% or more and less than 70%). The “J (Alopecurus myosuroides) herbicidal effect grade” value in test [5] is 0 (Herbicidal ratio of 5% or less (almost no effect)). In addition, the “N (Amaranthus retroflexus) herbicidal effect grade” value in test [6] is 2 (Herbicidal ratio of 20% or more and less than 40%). Besides, the “L (Apera spica-venti.) herbicidal effect grade” value in test [7] was 1 (Herbicidal ratio of 5% or more and less than 20%). For the same molecule, the “I (Avena fatua) herbicidal effect grade” value in [8] is 0 (Herbicidal ratio of 5% or less (almost no effect)). The “O (Chenopodium album) herbicidal effect grade” value in test [9] is reported as 5 (Herbicidal ratio of 90% or more (almost completely withered)). Besides, the “F (Digitaria ciliaris) herbicidal effect grade” value in test [10] was 4 (Herbicidal ratio of 70% or more and less than 90%). Moreover, in test [11], the “H (Echinochloa crus-galli var. crus-galli) herbicidal effect grade” value is 4 (Herbicidal ratio of 70% or more and less than 90%). The “Q (Galium spurium) herbicidal effect grade” value in test [12] is reported as 0 (Herbicidal ratio of 5% or less (almost no effect)). Besides, in test [13], the “K (Lolium multiflorum Lam.) herbicidal effect grade” value is 0 (Herbicidal ratio of 5% or less (almost no effect)). Further, the “G (Setaria viridis) herbicidal effect grade” value in test [14] was 2 (Herbicidal ratio of 20% or more and less than 40%). For the same molecule, the “R (Veronica persica) herbicidal effect grade” value in [15] was 3 (Herbicidal ratio of 40% or more and less than 70%).

In the case of `Cc1nnc(NC(=O)c2ccc(C(F)(F)F)n3c(SCC(F)(F)F)nnc23)o1` [1-124], in test [1], the “A (Echinochloa oryzicola Vasing.) herbicidal ratio grade” value is 3 (Herbicidal ratio of 40% or more and less than 70%). Further, in [2], the “C (Monochoria vaginalis) herbicidal ratio grade” value is 1 (Herbicidal ratio of 5% or more and less than 20%). Also, in [3], the “B (Scirpus juncoides) herbicidal ratio grade” value was 3 (Herbicidal ratio of 40% or more and less than 70%). Further, in test [4], the “M (Abutilon theophrasti) herbicidal effect grade” value is on record as 5 (Herbicidal ratio of 90% or more (almost completely withered)). The “J (Alopecurus myosuroides) herbicidal effect grade” value in test [5] is on record as 0 (Herbicidal ratio of 5% or less (almost no effect)). Further, the “N (Amaranthus retroflexus) herbicidal effect grade” value in [6] is 4 (Herbicidal ratio of 70% or more and less than 90%). In addition, in [7], the “L (Apera spica-venti.) herbicidal effect grade” value is 1 (Herbicidal ratio of 5% or more and less than 20%). In addition, in test [8], the “I (Avena fatua) herbicidal effect grade” value is 2 (Herbicidal ratio of 20% or more and less than 40%). For the same molecule, in test [9], the “O (Chenopodium album) herbicidal effect grade” value is on record as 5 (Herbicidal ratio of 90% or more (almost completely withered)). In addition, in test [10], the “F (Digitaria ciliaris) herbicidal effect grade” value is listed as 5 (Herbicidal ratio of 90% or more (almost completely withered)). Further, in [11], the “H (Echinochloa crus-galli var. crus-galli) herbicidal effect grade” value is recorded as 5 (Herbicidal ratio of 90% or more (almost completely withered)). In [12], the “Q (Galium spurium) herbicidal effect grade” value was 2 (Herbicidal ratio of 20% or more and less than 40%). Also, the “K (Lolium multiflorum Lam.) herbicidal effect grade” value in test [13] is listed as 0 (Herbicidal ratio of 5% or less (almost no effect)). Moreover, the “G (Setaria viridis) herbicidal effect grade” value in test [14] is 3 (Herbicidal ratio of 40% or more and less than 70%). For the same molecule, the “R (Veronica persica) herbicidal effect grade” value in test [15] was 2 (Herbicidal ratio of 20% or more and less than 40%).

On to `O=C(Nc1nnco1)c1ccc(C(F)(F)F)n2c(N3CCOCC3)nnc12` [1-110], for which the “A (Echinochloa oryzicola Vasing.) herbicidal ratio grade” value in test [1] is 4 (Herbicidal ratio of 70% or more and less than 90%). Moreover, the “C (Monochoria vaginalis) herbicidal ratio grade” value in test [2] was 4 (Herbicidal ratio of 70% or more and less than 90%). For the same molecule, the “B (Scirpus juncoides) herbicidal ratio grade” value in [3] was 3 (Herbicidal ratio of 40% or more and less than 70%). In addition, the “M (Abutilon theophrasti) herbicidal effect grade” value in test [4] is 4 (Herbicidal ratio of 70% or more and less than 90%). Further, in test [5], the “J (Alopecurus myosuroides) herbicidal effect grade” value is 3 (Herbicidal ratio of 40% or more and less than 70%). In addition, the “N (Amaranthus retroflexus) herbicidal effect grade” value in test [6] was 5 (Herbicidal ratio of 90% or more (almost completely withered)). The “L (Apera spica-venti.) herbicidal effect grade” value in test [7] is 3 (Herbicidal ratio of 40% or more and less than 70%). For the same molecule, the “I (Avena fatua) herbicidal effect grade” value in [8] is 4 (Herbicidal ratio of 70% or more and less than 90%). The “O (Chenopodium album) herbicidal effect grade” value in test [9] is listed as 5 (Herbicidal ratio of 90% or more (almost completely withered)). In addition, in [10], the “F (Digitaria ciliaris) herbicidal effect grade” value is on record as 5 (Herbicidal ratio of 90% or more (almost completely withered)). In [11], the “H (Echinochloa crus-galli var. crus-galli) herbicidal effect grade” value was 5 (Herbicidal ratio of 90% or more (almost completely withered)). Further, the “Q (Galium spurium) herbicidal effect grade” value in [12] was 4 (Herbicidal ratio of 70% or more and less than 90%). Moreover, in [13], the “K (Lolium multiflorum Lam.) herbicidal effect grade” value was 3 (Herbicidal ratio of 40% or more and less than 70%). Moreover, the “G (Setaria viridis) herbicidal effect grade” value in test [14] is recorded as 5 (Herbicidal ratio of 90% or more (almost completely withered)). For the same molecule, the “R (Veronica persica) herbicidal effect grade” value in [15] was 5 (Herbicidal ratio of 90% or more (almost completely withered)).

Turning to `CCOc1nnc2c(C(=O)Nc3nnco3)ccc(C(F)(F)F)n12` [1-112], the “A (Echinochloa oryzicola Vasing.) herbicidal ratio grade” value in test [1] was 1 (Herbicidal ratio of 5% or more and less than 20%). Further, the “C (Monochoria vaginalis) herbicidal ratio grade” value in test [2] is given as 0 (Herbicidal ratio of 5% or less (almost no effect)). For the same molecule, the “B (Scirpus juncoides) herbicidal ratio grade” value in test [3] was 2 (Herbicidal ratio of 20% or more and less than 40%). Also, in [4], the “M (Abutilon theophrasti) herbicidal effect grade” value is 3 (Herbicidal ratio of 40% or more and less than 70%). Also, the “J (Alopecurus myosuroides) herbicidal effect grade” value in [5] is recorded as 0 (Herbicidal ratio of 5% or less (almost no effect)). The “N (Amaranthus retroflexus) herbicidal effect grade” value in [6] was 4 (Herbicidal ratio of 70% or more and less than 90%). In test [7], the “L (Apera spica-venti.) herbicidal effect grade” value is listed as 0 (Herbicidal ratio of 5% or less (almost no effect)). For the same molecule, the “I (Avena fatua) herbicidal effect grade” value in test [8] is on record as 0 (Herbicidal ratio of 5% or less (almost no effect)). Further, in test [9], the “O (Chenopodium album) herbicidal effect grade” value is on record as 5 (Herbicidal ratio of 90% or more (almost completely withered)). Besides, the “F (Digitaria ciliaris) herbicidal effect grade” value in test [10] was 1 (Herbicidal ratio of 5% or more and less than 20%). Also, the “H (Echinochloa crus-galli var. crus-galli) herbicidal effect grade” value in [11] was 2 (Herbicidal ratio of 20% or more and less than 40%). Also, the “Q (Galium spurium) herbicidal effect grade” value in [12] is on record as 0 (Herbicidal ratio of 5% or less (almost no effect)). Also, the “K (Lolium multiflorum Lam.) herbicidal effect grade” value in test [13] was 0 (Herbicidal ratio of 5% or less (almost no effect)). Also, the “G (Setaria viridis) herbicidal effect grade” value in [14] is 0 (Herbicidal ratio of 5% or less (almost no effect)). The “R (Veronica persica) herbicidal effect grade” value in test [15] is on record as 5 (Herbicidal ratio of 90% or more (almost completely withered)).
